Results from patent US6809096B1, “Phenanthroline-7-one derivatives and their therapeutic uses” (Laboratoire L. Lafon, priority 1999, dated 2004).

What was measured:
[1] = tested on: leukaemia cell model; settings: cytotoxicity; cited from earlier work
[2] = tested on: 12 human cancer cell lines (U-373MG, U-87MG, SW1088, A549, A-427, HCT-15, LoVo, T-47D, MCF7, J82, T24, PC-3); assay: Cytotoxic activity on tumour cell lines in culture (MTT test); assay type: cell-based; settings: Homo sapiens, mean IC50 calculated from the individual cytotoxic activities on each of the 12 tumour lines, 72 hours incubation
Experimental: 1—Cytotoxic Activity on Tumour Cell Lines in Culture (MTT Test)
The influence of the compounds of formula (I) and of (Ia) on tumour cells was evaluated using the MTT calorimetric test (T. Mosman, J. Immunol. Methods, 1983; 65: 55-63, J. Carmichael et al., Cancer Res. 1987; 47: 936-942).
The principle of the MTT test is based on the mitochondrial reduction by metabolically active alive cells of the yellow-coloured product MTT (3-(4,5-dimethylthiazol-2-yl)-2,5-diphenyltetrazolium bromide) to a blue-coloured product, formazan. The amount of formazan thus obtained is directly proportional to the amount of live cells present in the culture well or wells. This amount of formazan is measured by spectrophotometry.
The cell lines are maintained in monolayer culture at 37° C. in stoppered culture dishes containing 25 MM HEPES MEM (Minimum Essential Medium) base medium. This medium is well suited to the growth of a range of varied diploid or primary mammalian cells. This medium is subsequently supplemented: […]
with an amount of 5% of FCS (Foetal Calf Serum) decomplemented at 56° C. for 1 hour, with 0.6 mg/ml of L-glutamine, with 200 IU/ml of penicillin, with 200 μg/ml of streptomycin, with 0.1 mg/ml of gentamicin.
The 12 human cancer cell lines which were used were obtained from the American Type Culture Collection (ATCC, Rockville, Md., USA). These 12 cell lines are:
U-373MG (ATCC code: HTB-17) and U-87MG (ATCC code: HTB-14), which are two glioblastomas, SW1088 (ATCC code: HTB-12) which is an astrocytoma, A549 (ATCC code: CCL-185) and A-427 (ATCC code: HTB-53), which are two non-small-cell lung cancers, HCT-15 (ATCC code: CCL-225) and LoVo (ATCC code: CCL-229), which are two colorectal cancers, T-47D (ATCC code: HTB-133) and MCF7 (ATCC code: HTB-22), which are two breast cancers, J82 (ATCC code: HTB-1) and T24 (ATCC code: […]), which are two bladder cancers, PC-3 (ATCC code: CRL-1435), which is a prostate cancer.
Experimentally: 100 μl of a cell suspension comprising 20 000 to 50 000 (depending on the cell type used) cells/ml of culture medium are inoculated in flat-bottomed 96-well multi-well plates and are incubated at 37° C. under an atmosphere comprising 5% of CO2 and 70% humidity. After incubating for 24 hours, the culture medium is replaced with 100 μl of fresh medium comprising either the various test compounds at concentrations varying from 10^−5 to 10^−10 M of the solvent used to dissolve the -test products (control condition). After incubating for 72 hours under the above conditions, the culture medium is replaced with 100 μl of a yellowish solution of MTT dissolved, in a proportion of 1 mg/ml, in RPMI 1640. The microplates are reincubated for 3 hours at 37° C. and then centrifuged for 10 minutes at 400 g. The yellowish MTT solution is removed and the blue formazan crystals formed at the cellular level are dissolved in 100 μl of DMSO. The microplates are subsequently agitated for 5 minutes. The intensity of the resulting blue coloration, and thus of the conversion of the yellow MTT product into blue formazan by the cells which are still alive at the end of the experiment, is quantified by spectrophotometry using a device of DYNATECH IMOASSAY SYSTEM type at wavelengths of 570 nm and 630 nm corresponding respectively to the maximum absorption wavelengths of formazan and to the background noise. Software built into the spectrophotometer calculates the mean optical density values and the standard deviation (Std. Dev.) and standard error of the mean (SEM) values.
The inhibitory activity on the cell growth of the compounds of formula (I) and (Ia) on the various tumour cell lines was measured in comparison with that of the natural product.

[3] = Determination of the maximum tolerated dose (MTD); settings: mouse, in vivo, ip; B6D2F1/Jico mice, single intraperitoneal administration, survival over 14 days, doses 2.5 to 160 mg/kg; read-out: DMT (mg/kg) (Maximum Tolerated Doses)
Experimental: 2—Determination of the Maximum Tolerated Dose (MTD)
The evaluation of the maximum tolerated dose was carried out on B6D2F1/Jico mice aged from 4 to 6 weeks. The compounds were administered intraperitoneally at increasing doses ranging from 2.5 to 160 mg/kg. The value of the MTD (expressed in mg/kg) is determined from the observation of the survival rates of the animals over a period of 14 days after a single administration of the product under consideration. The change in the weight of the animals is also monitored over this period. When that the value of the MTD is greater than 160 mg/kg, the value of the MTD is categorized as 160 mg/kg by default.

In the case of 2-bromoleptoclinidone, the ED50 [1] is listed as 0.4 µg/mL.
`COc1ccnc2c1C(=O)c1nccc3ccnc-2c13` [CRL 8363, 8-Methoxy-7H-pyrido[4,3,2-de][1,10]phenanthroline-7-one] gave an IC50 [2] of 500 nM and an MTD at 14 days [3] of 10 mg/kg.
`COc1ccnc2c1-c1nccc3ccnc(c13)C2=O` [CRL 8364, 11-methoxy-7H-pyrido[4,3,2-de][1,7]phenanthroline-7-one] showed an IC50 [2] of 270 nM and an MTD at 14 days [3] of 5 mg/kg.
In the case of `CN(C)c1ccnc2c1-c1nccc3ccnc(c13)C2=O` [CRL 8367, 11-(Dimethylamino)-7H-pyrido[4,3,2-de][1,7]phenanthroline-7-one], the IC50 [2] is reported as 1650 nM and the MTD at 14 days [3] is reported as 10 mg/kg.
With `O=C1c2nccc(O)c2-c2nccc3ccnc1c23` [CRL 8388, 11-Hydroxy-7H-pyrido[4,3,2-de][1,7]phenanthroline-7-one] the IC50 [2] was 6200 nM and the MTD at 14 days [3] was 10 mg/kg.
`O=C1c2c(Cl)ccnc2-c2nccc3ccnc1c23` [CRL 8396, 8-Chloro-7H-pyrido[4,3,2-de][1,10]phenanthroline-7-one] gave an IC50 [2] of 600 nM and an MTD at 14 days [3] of 20 mg/kg.
For `COc1cnc2c3c(nccc13)-c1ncccc1C2=O` [CRL 8400, 4-Methoxy-7H-pyrido[4,3,2-de][1,10]phenanthroline-7-one], the IC50 [2] was 380 nM and the MTD at 14 days [3] was over 160 mg/kg.
Work on `COc1cnc2c3c(nccc13)-c1cccnc1C2=O` [CRL 8401, 4-Methoxy-7H-pyrido[4,3,2-de][1,7]phenanthroline-7-one] yielded an IC50 [2] of 53 nM and an MTD at 14 days [3] of over 160 mg/kg.
Compound `COc1ccnc2c1-c1nccc3c(OC)cnc(c13)C2=O` [CRL 8440, 4,11-Dimethoxy-7H-pyrido[4,3,2-de][1,7]phenanthroline-7-one] has an IC50 [2] of 10 nM and an MTD at 14 days [3] of 20 mg/kg.
For `COc1cnc2c3c(nccc13)-c1c(N(C)C)ccnc1C2=O` [CRL 8441, 4-Methoxy-11-dimethylamino-7H-pyrido[4,3,2-de][1,7]phenanthroline-7-one], the IC50 [2] was 5000 nM and the MTD at 14 days [3] was over 160 mg/kg.
Work on `COc1ccc2c(n1)C(=O)c1ncc(OC)c3ccnc-2c13` [CRL 8479, 4,9-Dimethoxy-7H-pyrido[4,3,2-de][1,7]phenanthroline-7-one] yielded a melting point of over 260 °C.
`O=C1c2ncccc2-c2nccc3c(Cl)cnc1c23` [CRL 8480, 4-Chloro-7H-pyrido[4,3,2-de][1,7]phenanthroline-7-one] showed a melting point of over 260 °C.
Compound `CN(C)c1cnc2c3c(nccc13)-c1cccnc1C2=O` [CRL 8481, 4-Dimethylamino-7H-pyrido[4,3,2-de][1,7]phenanthroline-7-one] has a melting point of over 260 °C.
`CCOC(=O)c1cnc2c(c1)-c1nccc3ccnc(c13)C2=O` [CRL 8482, 10-Ethoxycarbonyl-7H-pyrido[4,3,2-de][1,7]phenanthroline-7-one] gave a melting point of 246 °C.
For `O=C1c2nc(O)ccc2-c2nccc3ccnc1c23` [CRL 8483, 9-Hydroxy-7H-pyrido[4,3,2-de][1,7]phenanthroline-7-one], the melting point was over 260 °C.
For `COc1ccc2c(n1)C(=O)c1nccc3ccnc-2c13` [CRL 8484, 9-Methoxy-7H-pyrido[4,3,2-de][1,7]phenanthroline-7-one], the melting point was over 260 °C.
With `COc1cc(OC)c2c(n1)C(=O)c1nccc3ccnc-2c13` [CRL 8485, 9,11-Dimethoxy-7H-pyrido[4,3,2-de][1,7]phenanthroline-7-one] the melting point was over 260 °C.
With `CN(C)c1cc(Cl)nc2c1-c1nccc3ccnc(c13)C2=O` [CRL 8486, 9-Chloro-11-dimethylamino-7H-pyrido[4,3,2-de][1,7]phenanthroline-7-one] the melting point was 246 °C.
Compound `I.I.O=C1c2ncccc2-c2nccc3c(O)cnc1c23` [CRL 8487, 4-Hydroxy-7H-pyrido[4,3,2-de][1,7]phenanthroline-7-one dihydroiodide] has a melting point of over 260 °C.
